Data published in the supplement of paper PMC10307832.

Assays:
Experiment in all cases: relative viability (nuclei count vs DMSO), 5 days (fraction); higher = more cells survive
[1] = compound: CN[C@@H]1C[C@H]2O[C@@](C)([C@@H]1OC)n1c3ccccc3c3c4c(c5c6ccccc6n2c5c31)C(=O)NC4 [Staurosporine] + C[C@@H](Oc1cc(-c2cnn(C3CCNCC3)c2)cnc1N)c1c(Cl)ccc(F)c1Cl [Crizotinib] (partner 1 µM)
Outline: (§1)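 Lung cancer cell lines in 1536-well plates got either a single drug or a fixed anchor-drug dose together with five library-drug doses (not always all listed) in √10 steps, by pin tool, on the day after seeding. Nuclei were counted after 5 days, and relative viability is the treated-to-vehicle ratio of nuclei counts. Values are medians of duplicate plates.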

[2] = compound: CN[C@@H]1C[C@H]2O[C@@](C)([C@@H]1OC)n1c3ccccc3c3c4c(c5c6ccccc6n2c5c31)C(=O)NC4 [Staurosporine] + Nc1ncn([C@H]2C[C@H](O)[C@@H](CO)O2)c(=O)n1 [Decitabine] (partner 2 µM)
Outline: as §1

[3] = compound: CN[C@@H]1C[C@H]2O[C@@](C)([C@@H]1OC)n1c3ccccc3c3c4c(c5c6ccccc6n2c5c31)C(=O)NC4 [Staurosporine] + O=C(CCCCCCC(=O)Nc1ccccc1)NO [Vorinostat] (partner 1 µM)
Outline: as §1

[4] = compound: O=c1[nH]cc(F)c(=O)[nH]1 [5-Fluorouracil] + O=C(CCCCCCC(=O)Nc1ccccc1)NO [Vorinostat] (partner 1 µM)
Outline: as §1

Cell Line	relative viability ([1]; first compound 0.005 µM)	relative viability ([1]; first compound 0.01581 µM)	relative viability ([1]; first compound 0.05 µM)	relative viability ([1]; first compound 0.1581 µM)	relative viability ([1]; first compound 0.5 µM)	relative viability ([2]; first compound 0.005 µM)	relative viability ([2]; first compound 0.01581 µM)	relative viability ([2]; first compound 0.05 µM)	relative viability ([2]; first compound 0.1581 µM)	relative viability ([2]; first compound 0.5 µM)	relative viability ([3]; first compound 0.005 µM)	relative viability ([3]; first compound 0.01581 µM)	relative viability ([3]; first compound 0.05 µM)	relative viability ([3]; first compound 0.1581 µM)	relative viability ([3]; first compound 0.5 µM)	relative viability ([4]; first compound 0.02 µM)	relative viability ([4]; first compound 0.2 µM)	relative viability ([4]; first compound 0.6325 µM)	relative viability ([4]; first compound 2 µM)
H3255	0.591	0.495	0.25	0.174	0.0875	0.53	0.404	0.189	0.162	0.117	0.276	0.219	0.384	0.48	0.133	0.798	0.77	0.734	0.537
EMC-BAC-2	0.452	0.215	0.132	0.177	0.137	0.554	0.269	0.222	0.214	0.208	0.103		0.14	0.166	0.266	0.448	0.566	0.463	0.226
NCI-H727	0.3	0.322	0.228	0.181	0.164	0.859	0.587	0.432	0.393	0.316	1.36	0.831	0.453	0.36	0.322	0.953	1.14	1	0.902
SK-MES-1	0.718	0.582	0.262	0.184	0.11	0.32	0.239	0.204	0.136	0.121	0.47	0.27	0.18	0.154	0.127	1.2	0.404	0.306	0.302
NCI-H1355	0.834	0.727	0.366	0.258	0.234	0.389	0.293	0.281	0.234	0.152	0.597	0.227	0.235	0.138	0.111	0.625	0.49	0.264	0.243
PC-3 [JPC-3]			0.707	0.498	0.425	0.883	0.586	0.55	0.422	0.349	0.351	0.306	0.396	0.297	0.376	0.752	0.825	0.871	0.522
LK-2	0.18	0.16	0.129	0.0689	0.0939	0.327	0.173	0.369	0.0995	0.0618	0.19	0.0826	0.246	0.0977	0.0667	0.275	0.3	0.303	0.304
NCI-H1650	0.537	0.389	0.242	0.197	0.106	0.397	0.533	0.341	0.168	0.124	0.379	0.414	0.242	0.195	0.0786	0.552	0.386	0.329	0.198
